# Experimental data taken from patent US12083089B2, “Compositions and methods for stimulating ventilatory and/or respiratory drive” (CASE WESTERN RESERVE UNIVERSITY, priority 2015, dated 2024).
# “Also recorded” adds a separate entry of the source.
# How the values were obtained:
# [1] = test system: freely moving adult male Sprague-Dawley rats; assay: Whole-body plethysmography of ventilatory parameters in morphine-treated rats
# Experimental: Permissions, rats, surgical procedures and blinding of protocols. All studies were carried out in accordance with the NIH Guide for the Care and Use of Laboratory Animals (NIH Publication No. […]) revised in 1996. The protocols were approved by the Animal Care and Use Committees of the University of Virginia, Case Western Reserve University and Loma Linda University. In addition, all studies were carried out in compliance with the ARRIVE (Animal Research: Reporting of In Vivo Experiments) guidelines. Adult male Sprague-Dawley rats (Harlan, Madison, WI, USA) were implanted with jugular vein catheters under 2% isoflurane anesthesia and some rats received femoral arterial catheters. The rats were allowed at least four days to recover from surgery before use. All arterial catheters were flushed daily with heparin solution (50 units of heparin in phosphate-buffered saline at 0.1 M, pH 7.4). All catheters were flushed with phosphate-buffered saline (0.1 M, pH 7.4) approximately four hours before commencement of the experiments. All studies were performed in a quiet laboratory with relative humidity of 49±2% and room temperature of 21.4±0.2° C. […] Also, please note that the antinociception and ventilatory studies were done in separate groups of rats so as to not complicate the respiratory measurements. The recording (plethysmography, antinociception) sessions and the arterial blood gas assays were done by a particular investigator who administered the opioid, vehicle or test drug such as d-cystine diME. The syringes containing the vehicle or test drug were made up by another investigator, such that the investigator running the actual experiment was blinded to the treatment protocol. In every case, the data files resulting from a particular study were first collated and analyzed by another investigator in the group.
# Ventilatory parameters were recorded in freely moving rats by whole body plethysmography (PLY3223; Data Sciences International, St. Paul, MN). The rats were placed in individual chambers and given 60 min to acclimatize to allow true resting ventilatory parameters to be established. […] The rats received another injection of vehicle or 1-NACme (500 μmol/kg, IV) 15 min later and ventilatory parameters were recorded for a further 60 min.
# The provided software (Fine Pointe, BUXCO) constantly corrected digitized values for changes in chamber temperature and humidity. Pressure changes associated with the respiratory waveforms were then converted to volumes (i.e., TV, PIF and PEF) using the algorithm of Epstein and colleagues. Specifically, factoring in chamber temperature and humidity, the cycle analyzers filtered the acquired signals, and BUXCO algorithms (Fine Pointe) generated an array of box flow data that identified a waveform segment as an acceptable breath. From that data vector, the minimum and maximum values were determined. Flows at this point were considered to be “box flow” signals.
# The recorded data (1 min bins) and derived parameters, Vt/Ti and Response Area (cumulative percent changes from pre-values) were taken for statistical analyses. The pre-drug 1 min bins excluded occasional marked deviations from resting due to movements or scratching by the rats. These exclusions ensured accurate determinations of baseline parameters. The data are presented as mean±SEM. All data unless other-wise stated (see immediately below) were analyzed by one-way or two-way analysis of variance followed by Student's modified t test with Bonferroni corrections for multiple comparisons between means using the error mean square terms from each ANOVA. A value of P<0.05 denoted the initial level of statistical significance that was modified according to the number of comparisons between means.
# conscious rats = assay: Morphine-induced analgesia (paw withdrawal latency assay), Example 1; format: in vivo, rat; details: 500 μmol/kg i.v.; 10 mg/kg of morphine; FIG. 13
# freely moving rats [2] = assay: Tail-flick latency (TFL) test; format: in vivo, rat
# freely moving rats [3] = assay: Hot-plate (hind-paw withdrawal) latency (HPL), Hargreaves's test, morphine 10 mg/kg; format: in vivo, rat
# [4] = test system: conscious male adult Sprague-Dawley rats; assay: Plethysmographic ventilatory responses to test compounds in conscious rats; format: in vivo, rat
# [5] = test system: conscious (adult male) C57 black 6 (C57BL6) mice; assay: Ventilatory responses in conscious mice; format: in vivo, mouse
# freely moving rats [6] = assay: Arterial blood-gas chemistry and A-a gradient in morphine-treated rats; format: in vivo, rat
# rats = assay: Hemodynamics (preliminary toxicology); format: in vivo, rat; details: 500 μmol/kg, i.v.
# Excerpt: FIGS. 11(A-C) illustrate plots showing the effects of test agents (500 μmol/kg, i.v.) on hemodynamic variables. Data are presented mean±SEM (n=8 rats per group).
# adult male rats [7] = assay: Hargreaves Hind-paw Latency Test, morphine 1 mg/kg; format: in vivo, rat; details: for effect on the antinociception actions of morphine (Hargreaves): 500 μmol/kg IV with morphine sulfate 1.0 mg/kg IV; for thermal nociception (Hargreaves Testing) when given alone: 500 μmol/kg IV, tested 20 to 30 min post-injection; for Hargreaves hind-paw withdrawal latency: FIG. 26 study
# adult male rats [8] = assay: Von Frey Test, morphine 1 mg/kg; format: in vivo, rat; details: for force needed to initiate hind-paw withdrawal (Von Frey): FIG. 27 study
# humans = details: oral NAC three times daily, exposed acutely to isocapnic hypoxia; cited from earlier work
# [9] = 500 μmol/kg IV in morphine (10 mg/kg IV)-treated rats, FIG. 21
# [10] = freely moving rats, morphine 10 mg/kg IV, then d-cystine diEE 500 μmol/kg IV 15 min later
# [11] = 500 μmol/kg IV, before morphine
# [12] = drug 500 μmol/kg IV 20 min before morphine 10 mg/kg IV
smiles,measurement,setting,value
"CCOC(=O)[C@H](N)CSSC[C@@H](N)C(=O)OCC [D-Cystine diEE, D-Cystine diethylester]","initial peak responses: Freq, TV, MV, PIF, PEF, EF50, inspiratory and expiratory drive",[1]; [9],pronounced increases
same,total response: Freq,[1]; [9],relatively minor increase in Freq
same,"total response: TV, MV, PIF, PEF, PEF/PIF, EF50, inspiratory and expiratory drives",[1]; [9],robust sustained increases
same,ventilatory depressant effects of morphine incl. tidal volume/inspiratory time (Vt/Ti),"[1]; bolus 500 μmol/kg i.v. (D-CYSee 2×500 μmol/kg) after morphine 10 mg/kg i.v., conscious rats, Example 1",immediate and sustained reversal
same,duration of the brief increase in Freq,"[1]; d-cystine diEE 500 μmol/kg IV, 15 min after morphine 10 mg/kg IV",about 5 min
same,changes in EF50,[1]; [10],further prompt and sustained increase
same,changes in PEF/PIF,[1]; [10],decrease in PEF/PIF immediately upon injection
same,changes in expiratory drive (TV/Te),[1]; [10],substantial and sustained increase
same,changes in expiratory time (Te),[1]; [10],without greatly affecting Te
same,changes in frequency of breathing (Freq),[1]; [10],brief increase in Freq of about 5 min in duration that was followed by a gradual and sustained elevation
same,changes in inspiratory drive (TV/Ti),[1]; [10],noticeable but partial recovery
same,changes in inspiratory time (Ti),[1]; [10],brief decrease in Ti
same,changes in minute ventilation (MV),[1]; [10],prompt and long-lasting reversal
same,changes in peak expiratory flow (PEF),[1]; [10],marked increase in PEF to levels well above pre-morphine levels
same,changes in peak inspiratory flow (PIF),[1]; [10],prompt and relatively sustained reversal
same,changes in the ratio of Te/Ti,[1]; [10],similarly
same,morphine analgesia,conscious rats,does not attenuate
same,TFL after the drug alone,freely moving rats [2]; [11],transient increase
same,time within which the transient increase in TFL resolved,freely moving rats [2]; [11],≤ 15 min
same,antinociceptive effects of morphine (TFL) in drug-pretreated rats,freely moving rats [2]; [12],enhanced
same,HPL after the drug alone,freely moving rats [3]; [11],transient increase
same,time within which the transient increase in HPL resolved,freely moving rats [3]; [11],≤ 15 min
same,antinociceptive effects of morphine (HPL) in drug-pretreated rats,freely moving rats [3]; [12],enhanced
"COC(=O)[C@H](N)CSSC[C@@H](N)C(=O)OC [D-Cystine diME, D-Cystine dimethylester]","duration of increases in frequency of breathing, tidal volume and minute ventilation","[4]; 500 μmol/kg, i.v.",20 min
same,"total ventilatory responses recorded over the 30 min post-injection period (% baseline), comparison of efficacy","[4]; 500 μmol/kg, i.v., FIG. 2",most efficacious of the test compounds
same,"frequency of breathing, tidal volume and minute ventilation (response)","[4]; 500 mol/kg, i.v.",robust increases
same,"how sustained the ventilatory effect is, compared with D-CYSee and L-CYSee","[4]; 500 mol/kg, i.v.",most sustained effect
same,dose-dependency of ventilatory responses,[4]; FIG. 3,clearly dose-dependent
same,"duration of increases in frequency of breathing, tidal volume and minute ventilation",[5],approximately 20 min
same,"frequency of breathing, tidal volume and minute ventilation (response)",[5]; 250 mol/kg dose,robust increases
same,"immediate effects on Freq, TV or MV","[1]; rat, in vivo",minimal immediate effects
same,deleterious actions of morphine on ABG chemistry and A-a gradient,"freely moving rats [6]; bolus 500 μmol/kg i.v. after morphine 10 mg/kg i.v., Example 1",reversed
same,"changes in ABG chemistry (pH, pCO2, pO2 and sO2)","freely moving rats [6]; freely moving rats, morphine 10 mg/kg IV, then drug 500 μmol/kg IV 15 min later, FIG. 18",reversed immediately
same,changes in A-a gradient,"freely moving rats [6]; freely moving rats, morphine 10 mg/kg IV, then drug 500 μmol/kg IV 15 min later, FIG. 19",reversed immediately
same,hemodynamic responses (FIG. 11),rats,minimal responses; also recorded: did not elicit significant responses
same,effect on the antinociception actions of morphine (Hargreaves),adult male rats [7]; listed as D-cystine diME,not different from each other
same,effect on the antinociception actions of morphine (Hargreaves),adult male rats [7]; listed as d-cystine diME,neither thiolester affected
same,thermal nociception (Hargreaves Testing) when given alone,adult male rats [7],not a significant difference
same,thermal nociception (Hargreaves Testing) when given alone,adult male rats [7]; listed as d-cystine diME,neither d-cystine diME nor L-cystine diME affected
same,Hargreaves hind-paw withdrawal latency,adult male rats [7]; Morphine+D-Cystine diME,16.9 ± 1.0 s
same,Hargreaves hind-paw withdrawal latency,"adult male rats [7]; given alone, D-cystine diME 500 μmol/kg IV, morphine sulfate 1 mg/kg IV",12.9 ± 1.0 s
same,effect on the antinociception actions of morphine (Von Frey),"adult male rats [8]; 500 μmol/kg IV with morphine sulfate 1.0 mg/kg IV, listed as d-cystine diME",neither thiolester affected
same,mechanical allodynia (Von Frey Testing) when given alone,"adult male rats [8]; 500 μmol/kg IV, tested 20 to 30 min post-injection, listed as d-cystine diME",neither d-cystine diME nor L-cystine diME affected
same,force needed to initiate hind-paw withdrawal (Von Frey),adult male rats [8]; Morphine+D-cystine diME,176±5 grams
same,force needed to initiate hind-paw withdrawal (Von Frey),"adult male rats [8]; given alone, D-cystine diME 500 μmol/kg IV, morphine 1 mg/kg IV",144±8 grams
"CC(=O)N[C@@H](CS)C(=O)O [NAC, N-acetylcysteine]",increase in minute ventilation,humans,24±4%
